# Where two headings read alike, the source gives them in different places.
# Key:
# human lymphocytes = tested on: human lymphocytes
# Procedure: (§1) Human PBMC were isolated and cultured for 2-4 days in AIM-V medium containing 0 to 200 nM of sPIF-115 (SEQ ID NO:13) or scrPIF-115 (SEQ ID NO:5). The following proliferation-activating agents were used: anti-CD3 antibody (10 μg/ml solution) bound on the plate wells in the presence or absence of IL-2 at 10 μg/ml; phytohemmaglutinin (PHA) at 4 μg/ml. The effects of sPIF-115 (SEQ ID NO:13) or scrPIF-115 (SEQ ID NO:5) peptides were also determined by the mixed lymphocyte reaction (MLR) after 3 days in heterologous cultures of PBMC with cells previously treated with mitomycin C (100 μg/ml for 4 h). Cell proliferation was determined by tritiated thymidine incorporation (16 h) of 72-h culture. Cytokine release (IL-4, IL-10, IFN-γ and TNF-α) into culture supernatants was determined at 72 h of culture by ELISA (R&D System).
# PBMC [1] = details: PHA +
# Procedure: sPIF-115 (SEQ ID NO:13) effect was tested on a patient with over 14 miscarriages and no live birth. Their immune cells were examined in the non-pregnant state, by exposure to sPIF-115 (SEQ ID NO:13) using PBMC preparations. Induction of PIF receptor expression, and binding to lymphocytes were used to characterize the treated cells.
# [2] = tested on: THP1 a monocyte cell line; details: 1-100 nM, no mitogen
# Source text: The effect of PIF-1 was examined on THP1 a monocyte cell line (Dr Sharma Brown Univ).
# PBMC [3] = assay: PIF and analogues on release of cytokines +/- platebound mAbCD3 (Table 4); type: cell-based; set-up: IL-1β / TNFa / IL-4 / IL-5 / IL-6 / IL-10 / GM-CSM / IFN-g: unit not given here
# [4] = tested on: PIF-1 polyclonal antibody; assay: PIF-1 competitive ELISA, biotin labeled versus unlabeled peptide; type: binding, rabbits; details: 4.5 ug/ml pAb coating concentration; read-out: IC50 of dose response curve
# PBMC [5] = assay: Cytokine release (ELISA) and intracellular cytokine staining in stimulated PBMC; type: cell-based, human
# Procedure: FIG. 2. sPIF-1(15) (SEQ ID NO:13) increases the percentage of PBMC that contain TH2 type cytokines (IL10, IL 4), while scrPIF-1(15) (SEQ ID NO: 5) has a TH1 bias (INFgamma). Isolated PBMC were stimulated by PHA (1 ug/ml) and cultured 2-4 days with sPIF-1(15) (SEQ ID NO:13) or scrPIF-1(15) (SEQ ID NO:5). 30 nM. PBMC cytokines content was determined by specific staining using flow cytometry. Effect of PIF-1 on cellular content of cytokines of PBMC was examined up to 96 hours and a time dependent pattern emerged, not replicated by scrambled or irrelevant peptide. Measurements were carried out in two separate stages. At the cellular induction/synthetic level, lymphocytes were cultured in the presence of PHA for various periods with or without PIF-1 then processed for intracellular immunostaining (activation by PMA plus ionomycin in the presence of monenisn and berfeldin, followed by permeabilization and immunostaining) for the detection of nascent cytokines.
# as §1
# Procedure for 46 different kinases: The effect of PIF-1 on kinases related to metabolic function was examined. The methodology for testing PIF activity on MEK1 kinase is described below, but it is applicable for all kinases tested: 50 nM Tris pH, 0.1 mM EGTA 0.10% b-mercaptoethanol 1 mg/mg BSA PIF-1 15 was dissolved in deionised water at 5 nM-5 uM range of concentrations. […] (SEQ ID NO: 23), 10 mM Mg Acetate and [gamma-33P-ATP] 500 cpm/pmol. Reaction initiated with addition of MgATP. After 40 minutes incubation at room temperature, reaction stopped by the addition of 5 ul of a 3% phosphoric acid solution. 10 ul of the reaction is spotted onto a P30 filtermat and washed three times for 5 min in 75 mM phosphoric acid and once in methanol prior to drying and scintillation counting.
# The effects of PIF on 46 different kinases (listed below in Table 5) related to metabolic function were tested.
sequence,measurement,setting,value
MVRIKPGSANKPSDD [sPIF-1(15)],concentration at which lower rates of lymphocyte proliferation was found,human lymphocytes; MLR,1 nM
same,concentration at which lower rates of lymphocyte proliferation was found,human lymphocytes; PHA stimulated,250 nM
same,concentration at which lower rates of lymphocyte proliferation was found,human lymphocytes; anti-CD3 antibody stimulated,62.5 nM
same,(PIF+/CD4+)/CD4+,PBMC [1]; Control specimen,22.1
same,(PIF+/CD4+)/CD4+ difference in parentheses,PBMC [1]; Control specimen,0%
same,(PIF+/CD8+)/CD8+,PBMC [1]; Control specimen,24.5
same,(PIF+/CD19+)/CD19+,PBMC [1]; Control specimen,46.2
same,(PIF+/CD4+)/CD4+,PBMC [1]; Patient specimen,16.2
same,(PIF+/CD8+)/CD8+,PBMC [1]; Patient specimen,16.3
same,(PIF+/CD19+)/CD19+,PBMC [1]; Patient specimen,48.2
same,(PIF+/CD4+)/CD4+ difference in parentheses,PBMC [1]; Patient vs control,−27%
same,(PIF+/CD8+)/CD8+ difference in parentheses,PBMC [1]; Patient vs control,−33%
same,IL10 secretion,[2],dose dependent increase
same,GM-CSM,"PBMC [3]; C- (platebound mAbCD3), /1",20.7
same,IFN-g,"PBMC [3]; C- (platebound mAbCD3), /1",122.6
same,IL-1β,"PBMC [3]; C- (platebound mAbCD3), /1",3.4
same,IL-2,"PBMC [3]; C- (platebound mAbCD3), /1",21.4
same,IL-4,"PBMC [3]; C- (platebound mAbCD3), /1",17.2
same,IL-5,"PBMC [3]; C- (platebound mAbCD3), /1",0
same,IL-6,"PBMC [3]; C- (platebound mAbCD3), /1",204.2
same,IL-8,"PBMC [3]; C- (platebound mAbCD3), /1",>5000
same,IL-10,"PBMC [3]; C- (platebound mAbCD3), /1",72.9
same,TNFa,"PBMC [3]; C- (platebound mAbCD3), /1",135.7
same,GM-CSM,"PBMC [3]; C- (platebound mAbCD3), /50",29.1
same,IFN-g,"PBMC [3]; C- (platebound mAbCD3), /50",130.3
same,IL-1β,"PBMC [3]; C- (platebound mAbCD3), /50",4.4
same,IL-2,"PBMC [3]; C- (platebound mAbCD3), /50",31.0
same,IL-4,"PBMC [3]; C- (platebound mAbCD3), /50",17.9
same,IL-5,"PBMC [3]; C- (platebound mAbCD3), /50",0
same,IL-6,"PBMC [3]; C- (platebound mAbCD3), /50",287.7
same,IL-8,"PBMC [3]; C- (platebound mAbCD3), /50",>5000
same,IL-10,"PBMC [3]; C- (platebound mAbCD3), /50",77.0
same,TNFa,"PBMC [3]; C- (platebound mAbCD3), /50",223.5
same,GM-CSM,"PBMC [3]; U- (no mAbCD3), /1",12.5
same,IFN-g,"PBMC [3]; U- (no mAbCD3), /1",0
same,IL-1β,"PBMC [3]; U- (no mAbCD3), /1",0
same,IL-2,"PBMC [3]; U- (no mAbCD3), /1",19.9
same,IL-4,"PBMC [3]; U- (no mAbCD3), /1",0
same,IL-5,"PBMC [3]; U- (no mAbCD3), /1",0
same,IL-6,"PBMC [3]; U- (no mAbCD3), /1",32.2
same,IL-8,"PBMC [3]; U- (no mAbCD3), /1",963.0
same,IL-10,"PBMC [3]; U- (no mAbCD3), /1",0
same,TNFa,"PBMC [3]; U- (no mAbCD3), /1",0
same,GM-CSM,"PBMC [3]; U- (no mAbCD3), /50",0
same,IFN-g,"PBMC [3]; U- (no mAbCD3), /50",0
same,IL-1β,"PBMC [3]; U- (no mAbCD3), /50",0
same,IL-2,"PBMC [3]; U- (no mAbCD3), /50",0
same,IL-4,"PBMC [3]; U- (no mAbCD3), /50",0
same,IL-5,"PBMC [3]; U- (no mAbCD3), /50",0
same,IL-6,"PBMC [3]; U- (no mAbCD3), /50",37.8
same,IL-8,"PBMC [3]; U- (no mAbCD3), /50",1426.7
same,IL-10,"PBMC [3]; U- (no mAbCD3), /50",0
same,TNFa,"PBMC [3]; U- (no mAbCD3), /50",0
same,IC50,[4],0.5 to 0.7 nM
same,"percentage of PBMC that contain TH2 type cytokines (IL10, IL 4)","PBMC [5]; PHA 1 ug/ml, 2-4 days, 30 nM, flow cytometry",increases
same,IFN-γ decrease,PBMC [5]; one day after IL-10 increase,30%
same,increase in number of IL-10 secreting cells,"PBMC [5]; starting at day 2, peaking at days 3-4",50-60%
same,increase of TH2/TH1 cytokine ratio in PBMC,PBMC [5]; stimulated PBMC,more than five-fold
same,IFN-γ release in culture supernatants,"PBMC [5]; stimulated PBMC, 72 h, ELISA",significantly decreased
same,IL-4 release,"PBMC [5]; stimulated PBMC, 72 h, ELISA",does not have a significant effect
same,IL-10 release in culture supernatants,"PBMC [5]; stimulated PBMC, 72 h, ELISA",significantly increased
same,TNF-α release,"PBMC [5]; stimulated PBMC, 72 h, ELISA",does not have a significant effect
same,interaction with kinases related to metabolic function,46 different kinases,does not interact with any of kinases

# — patent US7723289B2, “PIF tetrapeptides” (BioIncept, LLC, priority 2003, dated 2010)
